Broadly, the IC50 is the concentration that inhibits the measured activity by half. A high value points to weaker potency in that assay.

Chain of 11β-HSD1 (P28845 whole entry): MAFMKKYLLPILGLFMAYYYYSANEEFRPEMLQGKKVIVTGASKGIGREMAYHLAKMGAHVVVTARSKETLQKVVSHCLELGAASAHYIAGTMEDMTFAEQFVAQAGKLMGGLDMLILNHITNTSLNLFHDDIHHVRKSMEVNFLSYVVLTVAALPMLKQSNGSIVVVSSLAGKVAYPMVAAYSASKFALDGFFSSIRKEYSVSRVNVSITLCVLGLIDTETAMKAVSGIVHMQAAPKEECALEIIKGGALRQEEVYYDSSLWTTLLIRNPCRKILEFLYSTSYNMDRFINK

This assay concerns the target 11β-HSD1 (Homo sapiens (Human), UniProt P28845). The assay is described as follows: 11β-HSD1 inhibiting activity, HTRF assay with human microsomal fractions. The assay is classed as biochemical. The following applies: 160 nM cortisone, 200 μM NADPH, 2 h at 37° C. On the procedure:
The inhibiting activity of 11β-HSD1 derived from microsomal fractions was measured using the HTRF assay (62CO2PEB, Cisbio). […] Europium (Eu^3+) cryptate and XL665-conjugated cortisol were then added to each well and incubated for an additional 2 h at room temperature. The Cortisol concentration was calculated u sing a calibration curve. The IC50 values were calculated from dose response curves using GraphPad Prism software.
Take `NC(=O)C12CC3CC(C1)C(NC(=O)c1cccc(NS(=O)(=O)c4cccc(F)c4)c1)C(C3)C2` (stereo not drawn) [Example 120, E-4-[3-(3-fluoro-benzenesulfonylamino)-benzamido]-adamantan-1-carboxylic acid amide]: the IC50 was 27.2 nM.

`Cc1cccc(F)c1S(=O)(=O)NCC1(C(=O)NC2C3CC4CC2CC(C(N)=O)(C4)C3)CC1` (stereo not drawn) [Example 10, E-4-[1-((2-fluoro-6-methyl-benzenesulfonylamino)methyl)cyclopropanecarboxamido]-adamantan-1-carboxylic acid amide] had an IC50 of 2.5 nM. The figure for `CN(C(C)(C)C(=O)NC1C2CC3CC1CC(C(N)=O)(C3)C2)S(=O)(=O)c1ccccc1F` (stereo not drawn) [Example 72, E-4-[2-(2-fluoro-N-methyl-benzenesulfonylamino)-2-methylpropanamido]adamantan-1-carboxylic acid amide] is 1.2 nM. As for `NC(=O)C12CC3CC(C1)C(NC(=O)C1(NC(=O)c4ccc(C(F)(F)F)cn4)CC1)C(C3)C2` (stereo not drawn) [Example 64], the figure is 111 nM. `NC(=O)C12CC3CC(C1)C(NC(=O)C1(CNC(=O)c4ccc(F)c(F)c4)CC1)C(C3)C2` (stereo not drawn) [Example 25]: 9.6 nM corresponded to half-maximal inhibition (IC50).

As to `NC(=O)C12CC3CC(C1)C(NC(=O)C1(CNS(=O)(=O)c4ccco4)CC1)C(C3)C2` (stereo not drawn) [Example 17, E-4-[1-((furan-2-sulfonylamino)methyl)cyclopropanecarboxamido]-adamantan-1-carboxylic acid amide], the IC50 is 132 nM. The compound `NC(=O)C12CC3CC(C1)C(NC(=O)c1cccc(NS(=O)(=O)c4cccc(Cl)c4)c1F)C(C3)C2` (stereo not drawn) [Example 132, E-4-[2-fluoro-3-(3-chlorobenzenesulfonylamino)benzamido]adamantan-1-carboxylic acid amide] displayed an IC50 of 148 nM. The figure for `NC(=O)C12CC3CC(C1)C(NC(=O)c1cccc(NS(=O)(=O)C4CC4)c1)C(C3)C2` (stereo not drawn) [Example 138, E-4-(3-(cyclopropanesulfonamido)benzamido)adamantan-1-carboxylic acid amide] is 62.1 nM. Compound `NC(=O)C12CC3CC(C1)C(NC(=O)C1(CNS(=O)(=O)c4cc(F)cc(F)c4)CC1)C(C3)C2` (stereo not drawn) [Example 9, E-4-[1-((3,5-difluoro-benzenesulfonylamino)methyl)cyclopropanecarboxamido]-adamantan-1-carboxylic acid amide] returned an IC50 of 608 nM. In the case of `NC(=O)C12CC3CC(C1)C(NC(=O)C1(CNC(=O)N4CCNc5ccccc54)CC1)C(C3)C2` (stereo not drawn) [Example 146, E-3,4-dihydro-2H-quinoxalin-1-carboxylic acid[1-(5-carbamoyl-adamantan-2-ylcarbamoyl)-cyclopropylmethyl]-amide], the IC50 was determined as 128 nM. The figure for `NC(=O)C12CC3CC(C1)C(NC(=O)C1(CNC(=O)N4CCCc5ccccc54)CC1)C(C3)C2` (stereo not drawn) [Example 141, E-3,4-dihydro-2H-quinolin-1-carboxylic acid[1-(5-carbamoyl-adamantan-2-ylcarbamoyl)-cyclopropylmethyl]-amide] is 52.5 nM. Compound `NC(=O)C12CC3CC(C1)C(NC(=O)c1cccc(NS(=O)(=O)c4cc(F)ccc4F)c1)C(C3)C2` (stereo not drawn) [Example 122, E-4-[3-(2,5-difluoro-benzenesulfonylamino)-benzamido]-adamantan-1-carboxylic acid amide] registered an IC50 of 15.1 nM.

`Cc1cccc(F)c1S(=O)(=O)NC1(C(=O)NC2C3CC4CC2CC(C(N)=O)(C4)C3)CC1` (stereo not drawn) [Example 40, E-4-[1-(2-fluoro-6-methyl-benzenesulfonylamino)cyclopropanecarboxamido]-adamantan-1-carboxylic acid amide] yielded a half-maximal inhibitory concentration (IC50) of 1.7 nM. Take `Cc1cc(S(=O)(=O)NC2(C(=O)NC3C4CC5CC3CC(C(N)=O)(C5)C4)CC2)c(Cl)cc1Cl` (stereo not drawn) [Example 43, E-4-[1-(2,4-dichloro-5-methyl-benzenesulfonylamino)cyclopropanecarboxamido]-adamantan-1-carboxylic acid amide]: the IC50 came out at 29.7 nM.

`O=C(O)CC[C@]12C[C@@H]3C[C@H](C1)[C@@H](NC(=O)C1(CNS(=O)(=O)c4ccccc4F)CC1)[C@@H](C3)C2` [Example 33, E-3-(4-(1((2-fluoro-benzenesulfonylamino)methyl)cyclopropanecarboxamido)adamantan-1-yl)propanoic acid] gave an IC50 of 1.5 nM. As for `NC(=O)C12CC3CC(C1)C(NC(=O)C1(CNC(=O)N4CCc5ccccc5C4)CC1)C(C3)C2` (stereo not drawn) [Example 140], the figure is 97.8 nM; as for `NC(=O)C12CC3CC(C1)C(NC(=O)C1(CNS(=O)(=O)c4ccc(F)c(F)c4)CC1)C(C3)C2` (stereo not drawn) [Example 21, E-4-[1-((3,4-difluoro-benzenesulfonylamino)methyl)cyclopropanecarboxamido]-adamantan-1-carboxylic acid amide], 30.8 nM. Compound `NC(=O)C12CC3CC(C1)C(NC(=O)C1(NS(=O)(=O)c4cccs4)CC1)C(C3)C2` (stereo not drawn) [Example 48, E-4-[1-(thiophen-2-sulfonylamino)cyclopropanecarboxamido]-adamantan-1-carboxylic acid amide] registered an IC50 of 62.8 nM. The figure for `NC(=O)C12CC3CC(C1)C(NC(=O)C1(CNS(=O)(=O)c4cccc(F)c4F)CC1)C(C3)C2` (stereo not drawn) [Example 11, E-4-[1-((2,3-difluoro-benzenesulfonylamino)methyl)cyclopropanecarboxamido]-adamantan-1-carboxylic acid amide] is 10.4 nM; for `NC(=O)C12CC3CC(C1)C(NC(=O)C1(CNS(=O)(=O)c4cc(Cl)cc(Cl)c4)CC1)C(C3)C2` (stereo not drawn) [Example 18] it is 23.9 nM; for `Cc1c(Cl)cccc1S(=O)(=O)NC1(C(=O)NC2C3CC4CC2CC(C(N)=O)(C4)C3)CC1` (stereo not drawn) [Example 41, E-4-[1-(3-chloro-2-methyl-benzenesulfonylamino)cyclopropanecarboxamido]-adamantan-1-carboxylic acid amide] it is 10 nM. `O=C(NC1CC2CCC1C2)C1(NS(=O)(=O)c2cccc(Cl)c2)CC1` (stereo not drawn) [Example 55, N-(bicyclo[2.2.1]heptan-2-yl)-1-(3-chloro-benzenesulfonylamino)cyclopropanecarboxamide] yielded an IC50 of 8.3 nM. `NC(=O)C12CC3CC(C1)C(NC(=O)C1(NS(=O)(=O)c4cc(Cl)c(Cl)cc4F)CC1)C(C3)C2` (stereo not drawn) [Example 45, E-4-[1-(2-fluoro-4,5-dichloro-benzenesulfonylamino)cyclopropanecarboxamido]-adamantan-1-carboxylic acid amide] had an IC50 of 32.5 nM.

On to `NC(=O)C12CC3CC(C1)C(NC(=O)c1cccc(NS(=O)(=O)c4ccccc4C(F)(F)F)c1)C(C3)C2` (stereo not drawn) [Example 100], for which the IC50 was determined as 15.3 nM. `Cc1c(Cl)cccc1S(=O)(=O)NCC(C)(C)C(=O)NC1C2CC3CC1CC(C(N)=O)(C3)C2` (stereo not drawn) [Example 70, E-4-[3-(3-chloro-2-methyl-benzenesulfonylamino)-2,2-dimethylpropanamido]adamantan-1-carboxylic acid amide] yielded an IC50 of 6.2 nM. As for `Cc1nc(C)c(S(=O)(=O)Nc2cccc(C(=O)NC3C4CC5CC3CC(C(N)=O)(C5)C4)c2)s1` (stereo not drawn) [Example 107], the IC50 was found to be 60.3 nM. The figure for `NC(=O)C12CC3CC(C1)C(NC(=O)c1cccc(NS(=O)(=O)c4c(F)cccc4F)c1)C(C3)C2` (stereo not drawn) [Example 123, E-4-[3-(2,6-difluoro-benzenesulfonylamino)-benzamido]-adamantan-1-carboxylic acid amide] is 12.8 nM.

For the origin of these results see patent publication US9464044B2, “Compound having ability to inhibit 11Beta-HSD1 enzyme or pharmaceutically acceptable salt thereof, method for producing same, and pharmaceutical composition containing same as active ingredient” (AHN-GOOK PHARMACEUTICAL CO., LTD., priority 2012, dated 2016).
